The experiment has as its target T1, p300 (Homo sapiens, UniProt Q09472).
T1 construct: host or cells: A549 P300 HiBit cells
The experiment in a line: P300 degradation, HiBit technology in A549 P300 HiBit cells (2 h). Format: cell-based. The settings on record: 2 hrs post treatment; for Dmax: A549, A549 P300 HiBit cells; for DC50: A549 P300 HiBit cells. In outline: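 Cells: A549 HiBiT-tagged lines, 0.2×10^4/well, F-12K + 10% HI-FBS, equilibrated overnight. Tx: serial dilution of cpd (10 mM DMSO stock). Readout: HiBiT lytic reagent, 10 min RT shaking, luminescence → potency, Dmax.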

Each structure is given as a SMILES string. Some results are limits rather than exact numbers.

T1 sequence (Q09472 whole entry): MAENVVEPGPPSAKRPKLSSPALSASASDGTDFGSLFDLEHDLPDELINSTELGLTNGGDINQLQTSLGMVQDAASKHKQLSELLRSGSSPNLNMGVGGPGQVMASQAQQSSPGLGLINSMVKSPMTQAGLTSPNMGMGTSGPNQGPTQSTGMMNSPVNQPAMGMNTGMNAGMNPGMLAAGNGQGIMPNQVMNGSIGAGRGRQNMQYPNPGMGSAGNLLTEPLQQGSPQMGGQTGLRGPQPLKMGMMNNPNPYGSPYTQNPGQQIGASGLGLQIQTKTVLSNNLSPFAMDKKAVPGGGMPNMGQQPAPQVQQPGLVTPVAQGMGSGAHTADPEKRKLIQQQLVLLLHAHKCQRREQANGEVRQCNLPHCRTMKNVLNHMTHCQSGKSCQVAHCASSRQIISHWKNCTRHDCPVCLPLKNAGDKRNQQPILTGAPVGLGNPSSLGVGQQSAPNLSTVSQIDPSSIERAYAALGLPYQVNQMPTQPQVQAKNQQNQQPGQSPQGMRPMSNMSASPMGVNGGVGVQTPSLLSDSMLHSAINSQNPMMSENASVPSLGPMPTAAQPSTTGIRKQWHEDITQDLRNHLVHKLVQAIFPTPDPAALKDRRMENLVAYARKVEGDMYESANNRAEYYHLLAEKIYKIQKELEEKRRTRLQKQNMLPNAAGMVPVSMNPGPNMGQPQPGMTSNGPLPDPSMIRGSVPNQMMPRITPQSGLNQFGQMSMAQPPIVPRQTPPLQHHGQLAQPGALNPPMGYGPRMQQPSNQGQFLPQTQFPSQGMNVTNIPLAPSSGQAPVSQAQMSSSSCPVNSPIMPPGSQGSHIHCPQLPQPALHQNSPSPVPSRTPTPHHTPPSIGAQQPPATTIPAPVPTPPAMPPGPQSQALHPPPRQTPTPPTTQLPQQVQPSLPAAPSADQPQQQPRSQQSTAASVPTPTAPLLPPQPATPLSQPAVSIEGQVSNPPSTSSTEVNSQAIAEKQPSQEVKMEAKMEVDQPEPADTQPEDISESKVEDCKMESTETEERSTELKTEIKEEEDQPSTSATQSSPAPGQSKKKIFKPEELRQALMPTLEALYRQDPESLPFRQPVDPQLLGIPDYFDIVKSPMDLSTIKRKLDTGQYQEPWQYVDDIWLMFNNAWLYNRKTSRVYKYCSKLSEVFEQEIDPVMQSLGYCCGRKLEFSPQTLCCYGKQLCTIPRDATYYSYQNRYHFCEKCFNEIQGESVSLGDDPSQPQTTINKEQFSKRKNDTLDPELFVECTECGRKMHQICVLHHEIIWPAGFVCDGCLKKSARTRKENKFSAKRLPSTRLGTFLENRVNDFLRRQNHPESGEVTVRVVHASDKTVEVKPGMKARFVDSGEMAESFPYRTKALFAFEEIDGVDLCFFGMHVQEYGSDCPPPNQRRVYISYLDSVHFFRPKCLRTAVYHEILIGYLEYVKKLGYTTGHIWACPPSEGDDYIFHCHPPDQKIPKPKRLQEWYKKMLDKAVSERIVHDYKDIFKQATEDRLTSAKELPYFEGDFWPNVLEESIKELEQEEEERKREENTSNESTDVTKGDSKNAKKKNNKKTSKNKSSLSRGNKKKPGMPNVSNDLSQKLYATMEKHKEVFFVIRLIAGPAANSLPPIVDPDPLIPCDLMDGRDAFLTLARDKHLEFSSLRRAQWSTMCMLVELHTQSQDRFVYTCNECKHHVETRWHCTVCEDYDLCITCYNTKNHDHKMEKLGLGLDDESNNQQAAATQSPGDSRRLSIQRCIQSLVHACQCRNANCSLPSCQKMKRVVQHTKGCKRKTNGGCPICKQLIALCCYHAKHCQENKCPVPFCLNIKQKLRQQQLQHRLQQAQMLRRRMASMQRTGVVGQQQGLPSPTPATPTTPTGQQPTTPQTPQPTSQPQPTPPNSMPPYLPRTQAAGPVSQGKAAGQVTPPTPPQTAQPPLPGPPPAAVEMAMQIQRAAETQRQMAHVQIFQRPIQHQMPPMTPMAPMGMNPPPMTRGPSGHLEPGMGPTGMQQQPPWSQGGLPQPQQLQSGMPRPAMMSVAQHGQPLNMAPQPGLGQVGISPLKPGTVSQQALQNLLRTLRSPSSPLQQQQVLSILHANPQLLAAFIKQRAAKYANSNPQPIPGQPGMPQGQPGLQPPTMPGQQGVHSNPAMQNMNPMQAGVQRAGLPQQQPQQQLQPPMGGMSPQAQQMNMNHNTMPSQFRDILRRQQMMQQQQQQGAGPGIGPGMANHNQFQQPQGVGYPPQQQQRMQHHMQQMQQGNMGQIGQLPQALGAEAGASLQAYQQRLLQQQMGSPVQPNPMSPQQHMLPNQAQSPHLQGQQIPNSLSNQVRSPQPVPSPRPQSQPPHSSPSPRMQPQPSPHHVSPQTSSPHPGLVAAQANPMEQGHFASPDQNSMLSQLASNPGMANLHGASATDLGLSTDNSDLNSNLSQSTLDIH

Compound `Cn1c(=O)n(C)c2c(-n3cccn3)nc(-c3cccc4cc(-c5ccc(C(=O)NCC#Cc6ccc7occ(C8CCC(=O)NC8=O)c7c6)nc5)ncc34)cc21` (centres unmarked) [Example A152, 5-(8-(1,3-dimethyl-2-oxo-4-(1H-pyrazol-1-yl)-2,3-dihydro-1H-imidazo[4,5-c]pyridin-6-yl)iso-quinolin-3-yl)-N-(3-(3-(2,6-dioxopiperidin-3-yl)benzofuran-5-yl)prop-2-yn-1-yl)picolinamide] returned a Dmax of 20 to 39% and a DC50 of 10 to 99 nM.
On the same counts, the results for `Cc1cc(-c2ncc(N(C)c3cc(C(C)C)c4c(c3)n(C)c(=O)n4C)cc2F)cnc1C(=O)NCC#Cc1ccc2occ(C3CCC(=O)NC3=O)c2c1` (centres unmarked) [Example A153, N-(3-(3-(2,6-dioxo-piperidin-3-yl)benzofuran-5-yl)prop-2-yn-1-yl)-3-fluoro-5-((7-iso-propyl-1,3-dimethyl-2-oxo-2,3-dihydro-1H-benzo[d]imidazol-5-yl)(methyl)amino)-5′-methyl-[2,3′-bipyridine]-6′-carboxamide] are over 80% and 1 to 9.9 nM.
The matching figures for `Cc1cc(-c2ccc(N(C)c3cc(C(C)C)c4c(c3)n(C)c(=O)n4C)cn2)cnc1C(=O)NCC#Cc1cc(NC2CCC(=O)NC2=O)nn1C` (centres unmarked) [Example A154, N-(3-(3-((2,6-dioxo-piperidin-3-yl)amino)-1-methyl-1H-pyrazol-5-yl)prop-2-yn-1-yl)-5-((7-isopropyl-1,3-dimethyl-2-oxo-2,3-dihydro-1H-benzo [d]imidazol-5-yl) (methyl)amino)-5′-methyl-[2,3′-bipyridine]-6′-carboxamide]: 60 to 79% and 10 to 99 nM.
`Cc1cc(-c2ncc(N(C)c3cc(C(C)C)c4c(c3)n(C)c(=O)n4C)cn2)cnc1C(=O)NCC#Cc1ccc2occ(C3CCC(=O)NC3=O)c2c1` (centres unmarked) [Example A156, N-(3-(3-(2,6-dioxo-piperidin-3-yl)benzofuran-5-yl)prop-2-yn-1-yl)-5-(5-((7-isopropyl-1,3-dimethyl-2-oxo-2,3-dihydro-1H-benzo [d]imidazol-5-yl)(methyl)amino)pyrimidin-2-yl)-3-methylpicolinamide] returned a Dmax of over 80% and a DC50 of 1 to 9.9 nM.
The matching figures for `Cn1c(=O)n(C)c2ncc(-c3cccc4cc(-c5ccc(C(=O)NCC#Cc6ccc7occ(C8CCC(=O)NC8=O)c7c6)nc5)ncc34)cc21` (centres unmarked) [Example A157, 5-(8-(1,3-dimethyl-2-oxo-2,3-dihydro-1H-imidazo[4,5-b]pyridin-6-yl)isoquinolin-3-yl)-N-(3-(3-(2,6-dioxopiperidin-3-yl)benzofuran-5-yl)prop-2-yn-1-yl)picolinamide]: over 80% and 1 to 9.9 nM.
On the same counts, the results for `CC(C)c1cc(-c2cccc3cc(-c4ccc(C(=O)NCC#Cc5ccc6occ(C7CCC(=O)NC7=O)c6n5)nc4)ncc23)cc2c1n(C)c(=O)n2C` (centres unmarked) [Example A159, N-(3-(3-(2,6-dioxo-piperidin-3-yl)furo[3,2-b]pyridin-5-yl)prop-2-yn-1-yl)-5-(8-(7-isopropyl-1,3-dimethyl-2-oxo-2,3-dihydro-1H-benzo [d]imidazol-5-yl)isoquinolin-3-yl)picolinamide] are 40 to 59% and 10 to 99 nM.
On the same counts, the results for `COc1cc(-c2cnc(C(=O)NCC#Cc3cc4c(C5CCC(=O)NC5=O)cccc4o3)c(C)c2)ncc1N(C)c1cc(C2CCOCC2)c2c(c1)n(C)c(=O)n2C` (centres unmarked) [Example A166, 5-((1,3-dimethyl-2-oxo-7-(tetrahydro-2H-pyran-4-yl)-2,3-dihydro-1H-benzo[d]imidazol-5-yl)(methyl)amino)-N-(3-(4-(2,6-dioxopiperidin-3-yl)benzofuran-2-yl)prop-2-yn-1-yl)-4-methoxy-5′-methyl-[2,3′-bipyridine]-6′-carboxamide] are 20 to 39% and 1 to 9.9 nM.
In turn, `COc1nc(-c2cnc(C(=O)NCC#Cc3cc4c(C5CCC(=O)NC5=O)cccc4o3)c(C)c2)ncc1N(C)c1cc(C2CCOCC2)c2c(c1)n(C)c(=O)n2C` (centres unmarked) [Example A167, 5-(5-((1,3-dimethyl-2-oxo-7-(tetrahydro-2H-pyran-4-yl)-2,3-dihydro-1H-benzo[d]imidazol-5-yl)(methyl)amino)-4-methoxypyrimidin-2-yl)-N-(3-(4-(2,6-dioxopiperidin-3-yl)benzofuran-2-yl)prop-2-yn-1-yl)-3-methylpicolinamide] displayed a Dmax of 60 to 79% and a DC50 of 1 to 9.9 nM.
On the same counts, the results for `Cc1cc(-c2ncc(N(C)c3cc(C4CCOCC4)c4c(c3)n(C)c(=O)n4C)cn2)cnc1C(=O)NCC#Cc1cc2c(C3CCC(=O)NC3=O)nccc2o1` (centres unmarked) [Example A168, 5-(5-((1,3-dimethyl-2-oxo-7-(tetrahydro-2H-pyran-4-yl)-2,3-dihydro-1H-benzo[d]imidazol-5-yl)(methyl)amino)pyrimidin-2-yl)-N-(3-(4-(2,6-dioxopiperidin-3-yl)furo[3,2-c]pyridin-2-yl)prop-2-yn-1-yl)-3-methylpicolinamide] are over 80% and 1 to 9.9 nM.
On the same counts, the results for `Cc1cc(-c2cnc(N(C)c3cc(C4CCOCC4)c4c(c3)n(C)c(=O)n4C)cn2)cnc1C(=O)NCC#Cc1cc2c(C3CCC(=O)NC3=O)nccc2o1` (centres unmarked) [Example A176, 5-(5-((1,3-dimethyl-2-oxo-7-(tetrahydro-2H-pyran-4-yl)-2,3-dihydro-1H-benzo[d]imidazol-5-yl)(methyl)amino)pyrazin-2-yl)-N-(3-(4-(2,6-dioxopiperidin-3-yl)furo[3,2-c]pyridin-2-yl)prop-2-yn-1-yl)-3-methylpicolinamide] are over 80% and 10 to 99 nM.
On the same counts, the results for `Cn1c(=O)n(C)c2cc(-c3cccc4cc(-c5ccc(C(=O)NCC#Cc6cc7c(C8CCC(=O)NC8=O)cccc7o6)nc5)ncc34)ncc21` (centres unmarked) [Example A179, 5-(8-(1,3-dimethyl-2-oxo-2,3-dihydro-1H-imidazo[4,5-c]pyridin-6-yl)isoquinolin-3-yl)-N-(3-(4-(2,6-dioxopiperidin-3-yl)benzofuran-2-yl)prop-2-yn-1-yl)picolinamide] are 60 to 79% and 1 to 9.9 nM.
The compound `Cc1cc(-c2cccc3cc(-c4ccc(C(=O)NCC#Cc5cc6c(C7CCC(=O)NC7=O)cccc6o5)nc4)ncc23)cc2c1n(C)c(=O)n2C` (centres unmarked) [Example A183, N-(3-(4-(2,6-dioxo-piperidin-3-yl)benzofuran-2-yl)prop-2-yn-1-yl)-5-(8-(1,3,7-trimethyl-2-oxo-2,3-dihydro-1H-benzo[d]imidazol-5-yl)isoquinolin-3-yl)picolinamide] yielded a Dmax of over 80% and a DC50 of under 1 nM.
On the same counts, the results for `CC(C)c1cc(-c2cccc3cc(-c4ccc(C(=O)NCC#Cc5ccc6c(c5)N(C5CCC(=O)NC5=O)CC6)nc4)ncc23)cc2c1n(C)c(=O)n2C` (centres unmarked) [Example A184, N-(3-(1-(2,6-dioxo-piperidin-3-yl)indolin-6-yl)prop-2-yn-1-yl)-5-(8-(7-isopropyl-1,3-dimethyl-2-oxo-2,3-dihydro-1H-benzo[d]imidazol-5-yl)isoquinolin-3-yl)picolinamide] are over 80% and 10 to 99 nM.
The matching figures for `CC(C)c1cc(-c2cccc3cc(-c4ccc(C(=O)NCC#Cc5nc6c(C7CCC(=O)NC7=O)cccc6n5C)nc4)ncc23)cc2c1n(C)c(=O)n2C` (centres unmarked) [Example A186, N-(3-(4-(2,6-dioxo-piperidin-3-yl)-1-methyl-1H-benzo[d]imidazol-2-yl)prop-2-yn-1-yl)-5-(8-(7-iso-propyl-1,3-dimethyl-2-oxo-2,3-dihydro-1H-benzo[d]imidazol-5-yl)isoquinolin-3-yl)picolinamide]: under 20% and over 1000 nM.
On the same counts, the results for `Cc1nc(-c2ncc(N(C)c3cc(C4CCOCC4)c4c(c3)n(C)c(=O)n4C)cn2)cnc1C(=O)NCC#Cc1cc2c(C3CCC(=O)NC3=O)cccc2o1` (centres unmarked) [Example A187, 5-(5-((1,3-dimethyl-2-oxo-7-(tetrahydro-2H-pyran-4-yl)-2,3-dihydro-1H-benzo[d]imidazol-5-yl)(methyl)amino)pyrimidin-2-yl)-N-(3-(4-(2,6-dioxopiperidin-3-yl)benzofuran-2-yl)prop-2-yn-1-yl)-3-methylpyrazine-2-carboxamide] are over 80% and 1 to 9.9 nM.
`Cc1cc(N2CCCc3nc(-c4ccc(C(=O)NCC#Cc5cc6c(C7CCC(=O)NC7=O)cccc6o5)nc4)ncc32)cc2c1n(C)c(=O)n2C` (centres unmarked) [Example A188, N-(3-(4-(2,6-dioxo-piperidin-3-yl)benzofuran-2-yl)prop-2-yn-1-yl)-5-(5-(1,3,7-trimethyl-2-oxo-2,3-dihydro-1H-benzo[d]imidazol-5-yl)-5,6,7,8-tetrahydropyrido[3,2-d]pyrimidin-2-yl)picolinamide]: the greatest degradation seen (Dmax) is over 80% and the half-maximal degradation concentration (DC50) is under 1 nM.
The matching figures for `Cn1c(=O)n(C)c2cc(N3CCOc4nc(-c5ccc(C(=O)NCC#Cc6ccc7nnn(C8CCC(=O)NC8=O)c7c6)nc5)ncc43)ccc21` (centres unmarked) [Example A190, 5-(5-(1,3-dimethyl-2-oxo-2,3-dihydro-1H-benzo[d]imidazol-5-yl)-6,7-dihydro-5H-pyrimido[4,5-b][1,4]oxazin-2-yl)-N-(3-(1-(2,6-dioxopiperidin-3-yl)-1H-benzo[d] [1,2,3]triazol-6-yl)prop-2-yn-1-yl)picolinamide]: 60 to 79% and 1 to 9.9 nM.
On the same counts, the results for `Cc1cc(-c2ncc(N(C)c3ccc4c(c3)n(C)c(=O)n4C)cn2)cnc1C(=O)NCC#Cc1cc2c(C3CCC(=O)NC3=O)nccc2o1` (centres unmarked) [Example A192, 5-(5-((1,3-dimethyl-2-oxo-2,3-dihydro-1H-benzo[d]imidazol-5-yl)(methyl)amino)pyrimidin-2-yl)-N-(3-(4-(2,6-dioxopiperidin-3-yl)furo[3,2-c]pyridin-2-yl)prop-2-yn-1-yl)-3-methylpicolinamide] are over 80% and 1 to 9.9 nM.
On the same counts, the results for `Cc1cc(-c2cnc(Nc3cc(C4CCOCC4)c4c(c3)n(C)c(=O)n4C)cn2)cnc1C(=O)NCC#Cc1cc2c(C3CCC(=O)NC3=O)cccc2o1` (centres unmarked) [Example A193] are under 20% and over 1000 nM.

Values taken from patent publication US20250114345A1, “COMPOUNDS AND COMPOSITIONS AS CBP/P300 DEGRADERS AND USES THEREOF” (Oncopia Therapeutics, Inc. d/b/a/ SK Life Science Labs, priority 2023, published 2025).
